According to patent publication US9560876B2, “Acylamino acid compounds and food preparations containing same” (Nestec S.A., priority 2008, dated 2017):

Molecular target: human TRPA1 (Homo sapiens, UniProt O75762)
Experiment: Intracellular calcium [Ca2+]i flux in HEK 293 cells stably expressing TRPA1 (FLEXstation, Fura-2/AM)
Format: cell-based
Settings: saturating concentration
Method: Cloning and Expression of Human TRPV1 and TRPA1 Receptors in HEK 293 Cells: Cloning and expression of these receptors was performed following previously published protocols. Briefly, cloned human TRPV1 cDNA was obtained from RZPD (Germany) and hTRPA1 cDNA from OriGene (Rockville, Md.). Genes were subcloned into pcDNA5/FRT (Invitrogen, Carlsbad, Calif.) to generate stable cell lines using the Flp-In system (Invitrogen) after sequencing verification.
Measurement of Intracellular Calcium Levels [Ca2+]i and Membrane Potential Variation in HEK 293 Cells Using a Fluorescent Plate Reader: Cell lines stably expressing TRP channels were seeded into 96-well plates previously coated with poly-D-lysine. […] [Ca2+]i fluxes from a homogeneous cell population (approximately 100000 cells) were measured as changes in fluorescence intensity when stimulated with agonists using a FLEXstation (Molecular Devices). […]
Data Analysis: Responses of molecules in HEK 293 cells were expressed as a percentage of maximum responses evoked by 150 μM cinnamaldehyde for TRPA1 and 1 μM capsaicin for TRPV1 (these concentrations were assessed independently to be saturating under these conditions). For all experiments, calcium fluxes were measured as changes in fluorescence intensity, before and after the addition of agonists. […] Data obtained from this study were expressed as mean SEM. […]

human TRPA1, sequence (O75762 whole entry): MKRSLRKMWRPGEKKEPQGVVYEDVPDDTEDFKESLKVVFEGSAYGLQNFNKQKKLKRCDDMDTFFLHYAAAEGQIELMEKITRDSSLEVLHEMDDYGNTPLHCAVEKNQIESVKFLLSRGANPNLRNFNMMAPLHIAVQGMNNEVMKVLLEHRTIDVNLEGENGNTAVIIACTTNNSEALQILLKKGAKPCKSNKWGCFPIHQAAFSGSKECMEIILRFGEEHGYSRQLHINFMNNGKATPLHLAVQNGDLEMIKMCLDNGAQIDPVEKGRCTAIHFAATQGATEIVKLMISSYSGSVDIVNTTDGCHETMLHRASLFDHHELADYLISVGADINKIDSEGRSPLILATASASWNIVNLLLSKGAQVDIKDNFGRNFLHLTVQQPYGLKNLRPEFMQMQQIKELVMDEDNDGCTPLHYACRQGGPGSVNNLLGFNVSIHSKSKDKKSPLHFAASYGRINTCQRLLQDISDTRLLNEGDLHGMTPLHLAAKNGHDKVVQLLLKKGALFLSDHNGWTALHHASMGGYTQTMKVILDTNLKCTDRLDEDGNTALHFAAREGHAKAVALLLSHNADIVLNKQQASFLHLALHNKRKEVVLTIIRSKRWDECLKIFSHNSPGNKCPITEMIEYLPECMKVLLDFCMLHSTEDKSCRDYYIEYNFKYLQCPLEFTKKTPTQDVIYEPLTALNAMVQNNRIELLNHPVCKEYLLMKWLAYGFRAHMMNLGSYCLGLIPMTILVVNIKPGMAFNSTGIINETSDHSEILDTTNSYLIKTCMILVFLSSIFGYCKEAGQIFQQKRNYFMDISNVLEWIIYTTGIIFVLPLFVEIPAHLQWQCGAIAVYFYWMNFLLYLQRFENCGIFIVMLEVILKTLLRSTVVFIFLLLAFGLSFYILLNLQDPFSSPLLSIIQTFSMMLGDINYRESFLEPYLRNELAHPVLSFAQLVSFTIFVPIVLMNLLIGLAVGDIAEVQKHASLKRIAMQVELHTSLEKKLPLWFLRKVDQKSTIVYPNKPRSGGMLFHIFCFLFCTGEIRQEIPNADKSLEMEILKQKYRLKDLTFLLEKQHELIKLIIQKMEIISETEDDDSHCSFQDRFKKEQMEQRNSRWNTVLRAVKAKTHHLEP

CCC=CCC=CCC=CCCCCCCCC(=O)NC(C)C(=O)O (centres unmarked) [K]
selectivity of activation, TRPA1 versus TRPV1 (comparison of TRPA1 and TRPV1 activation in HEK 293 cells): purely activating TRPA1 | maximum activation on TRPA1 (responses expressed as percentage of maximum response evoked by 150 μM cinnamaldehyde, FIG. 1): strong stimulating effect
